Assay results taken from PMC7413254 (Nature Communications, 2020).
Like-named read-outs stand apart in the source and are kept apart here.

Columns and labels:
non-expressing oocytes [1] = experiment: cells; format: cell-based, Xenopus laevis; conditions: non-expressing oocytes, total [3H]CQ transport, normalised to the oocyte type control
Procedure, shortened: (§1)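 PfCRT-expressing and control oocytes: ND96 pH 5.5 → 1.5 h at 27.5 °C → ice-cold ND96 wash → 10% SDS lysis → scintillation count.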

PfCRT^3D7 [2] = target: T1, PfCRT^3D7 (Plasmodium falciparum, UniProt Q8IBZ9); experiment: cell-based; format: cell-based; conditions: PfCRT3D7 oocytes, total [3H]CQ transport, normalised to the oocyte type control
Procedure, shortened: as §1

PfCRT^Dd2 [3] = target: T2, PfCRT^Dd2 (Plasmodium falciparum, UniProt Q9N623, A220S/I356T/K76T/M74I/N326S/N75E/Q271E/R371I); experiment: [3H]CQ uptake into Xenopus oocytes, cis-inhibition by unlabelled solute; format: cell-based; conditions: PfCRTDd2 oocytes, background [3H]CQ accumulation subtracted, normalised to oocyte type control
Procedure, shortened: as §1

PfCRT^Ecu1110 [4] = target: T3, PfCRT^Ecu1110 (Plasmodium falciparum, UniProt Q9N623, A220S/I356L/K76T/N326D); experiment: as above; format: cell-based; conditions: for Uptake of [3H]CQ (% PfCRTEcu1110 control), cis-inhibition / PfCRT-mediated [3H]CQ transport, cis-inhibition (% PfCRTEcu1110 control): PfCRTEcu1110 oocytes; for Uptake of [3H]CQ (% PfCRTEcu1110 control), cis-inhibition: total [3H]CQ transport, normalised to the oocyte type control; for PfCRT-mediated [3H]CQ transport, cis-inhibition (% PfCRTEcu1110 control): background [3H]CQ accumulation subtracted, normalised to oocyte type control; for [3H]CQ transport (% PfCRTEcu1110 control), cis-inhibition, PfCRTEcu1110: PfCRT-mediated component (background subtracted), sheet title says normalised to PfCRTDd2 control, mean ± SEM, SEM
Procedure, shortened: as §1

non-expressing oocytes [5] = format: cell-based, Xenopus laevis; conditions: non-expressing oocytes, total [3H]CQ transport, normalised to the oocyte type control
Procedure, shortened: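 Oocytes (ten per treatment, ≥4 independent frogs/days) were preloaded by injecting VF-6 in 25 nL ND96 at pH 5.0, 5.5, 6.0 or 7.0, or Na^+-free choline buffer, then uptake run 1.5 h, 27.5 °C, ND96 pH 5.5 by default. Internal concentrations assumed ~400 nL oocyte volume.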

PfCRT^3D7 [6] = target: T1, PfCRT^3D7; experiment: cell-based; format: cell-based; conditions: PfCRT3D7 oocytes; for Uptake of [3H]CQ (% PfCRT3D7 control), trans-stimulation: total [3H]CQ transport, normalised to the oocyte type control; for PfCRT-mediated [3H]CQ transport, trans-stimulation (% PfCRT3D7 control): normalised to oocyte type control
Procedure, shortened: (§2)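 Transport measured in Xenopus oocytes expressing the transporters, 1.5 h at 27.5 °C in ND96 pH 5.5 unless noted. For trans-stimulation, VF-6 injected in 25 nL ND96 at pH 5.0–7.0 or Na^+-free (choline) buffer; intracellular levels based on ~400 nL oocyte volume. Ten oocytes per treatment, ≥4 experiments.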

PfCRT^Dd2 [7] = target: T2, PfCRT^Dd2; experiment: cell-based; format: cell-based; conditions: for Uptake of [3H]CQ (% PfCRTDd2 control), trans-stimulation / PfCRT-mediated [3H]CQ transport, trans-stimulation (% PfCRTDd2 control): PfCRTDd2 oocytes; for Uptake of [3H]CQ (% PfCRTDd2 control), trans-stimulation: total [3H]CQ transport, normalised to the oocyte type control; for PfCRT-mediated [3H]CQ transport, trans-stimulation (% PfCRTDd2 control): normalised to oocyte type control; for [3H]CQ transport (% PfCRTDd2 control), trans-stimulation, PfCRTDd2: PfCRT-mediated component (background subtracted), mean ± SEM, SEM
Procedure, shortened: as §2

PfCRT^Ecu1110 [8] = target: T3, PfCRT^Ecu1110; experiment: cell-based; format: cell-based; conditions: for Uptake of [3H]CQ (% PfCRTEcu1110 control), trans-stimulation / PfCRT-mediated [3H]CQ transport, trans-stimulation (% PfCRTEcu1110 control): PfCRTEcu1110 oocytes; for Uptake of [3H]CQ (% PfCRTEcu1110 control), trans-stimulation: total [3H]CQ transport, normalised to the oocyte type control; for PfCRT-mediated [3H]CQ transport, trans-stimulation (% PfCRTEcu1110 control): normalised to oocyte type control; for [3H]CQ transport (% PfCRTDd2 control), trans-stimulation, PfCRTEcu1110: PfCRT-mediated component (background subtracted), sheet title says normalised to PfCRTDd2 control, mean ± SEM, SEM
Procedure, shortened: as §2

PfNT1 = target: T4, PfNT1 (Plasmodium falciparum, UniProt Q8IDM6); experiment: cell-based; format: cell-based; conditions: PfNT1 oocytes, total [3H]CQ transport, normalised to the oocyte type control
T4 construct: expressed in transfected cells; host or cells: Xenopus laevis oocytes (stage V-VI), cRNA-injected
Procedure, shortened: as §2

[9] = [test solute]i = 45 mM (30 mM for some solutes due to solubility)
[10] = [test solute]i = 5 mM (intracellular)
[11] = [test solute]i = 45 mM (intracellular; 30 mM for some solutes due to solubility)
[12] = [test solute]i = 5 mM (injected)

T2 sequence (Q9N623 whole entry A220S/I356T/K76T/M74I/N326S/N75E/Q271E/R371I): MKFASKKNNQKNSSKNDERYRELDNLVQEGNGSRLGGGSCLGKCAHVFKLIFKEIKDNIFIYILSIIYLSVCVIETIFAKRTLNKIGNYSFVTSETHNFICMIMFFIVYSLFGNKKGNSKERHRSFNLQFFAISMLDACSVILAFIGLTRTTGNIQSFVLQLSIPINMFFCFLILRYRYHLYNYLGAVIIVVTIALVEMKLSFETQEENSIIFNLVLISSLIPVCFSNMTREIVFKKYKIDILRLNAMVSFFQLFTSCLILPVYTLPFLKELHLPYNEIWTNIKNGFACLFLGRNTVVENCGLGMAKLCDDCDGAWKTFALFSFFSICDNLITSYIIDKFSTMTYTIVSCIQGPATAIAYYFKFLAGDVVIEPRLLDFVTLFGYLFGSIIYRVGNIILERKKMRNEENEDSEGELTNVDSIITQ
T3 sequence (Q9N623 whole entry A220S/I356L/K76T/N326D): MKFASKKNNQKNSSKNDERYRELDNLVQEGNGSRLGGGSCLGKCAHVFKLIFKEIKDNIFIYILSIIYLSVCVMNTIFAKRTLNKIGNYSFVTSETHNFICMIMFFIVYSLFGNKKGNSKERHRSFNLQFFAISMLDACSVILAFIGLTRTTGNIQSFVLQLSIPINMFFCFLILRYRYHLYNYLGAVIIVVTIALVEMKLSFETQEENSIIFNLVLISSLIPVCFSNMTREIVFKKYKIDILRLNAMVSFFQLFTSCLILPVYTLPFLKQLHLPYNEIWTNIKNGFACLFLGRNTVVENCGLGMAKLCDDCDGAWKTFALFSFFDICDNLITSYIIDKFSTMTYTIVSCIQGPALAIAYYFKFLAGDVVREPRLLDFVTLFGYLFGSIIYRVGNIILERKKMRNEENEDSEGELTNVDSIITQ
T1 sequence (Q8IBZ9 59-398): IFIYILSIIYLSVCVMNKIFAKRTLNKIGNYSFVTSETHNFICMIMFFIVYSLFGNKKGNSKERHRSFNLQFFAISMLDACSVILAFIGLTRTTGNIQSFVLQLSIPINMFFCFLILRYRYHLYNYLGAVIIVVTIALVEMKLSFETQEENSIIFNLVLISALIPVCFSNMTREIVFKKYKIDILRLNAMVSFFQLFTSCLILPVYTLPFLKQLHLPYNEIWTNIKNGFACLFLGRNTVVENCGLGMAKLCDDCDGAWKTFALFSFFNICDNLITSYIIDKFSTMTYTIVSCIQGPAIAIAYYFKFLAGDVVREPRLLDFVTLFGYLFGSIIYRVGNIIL
T4 sequence (Q8IDM6 whole entry): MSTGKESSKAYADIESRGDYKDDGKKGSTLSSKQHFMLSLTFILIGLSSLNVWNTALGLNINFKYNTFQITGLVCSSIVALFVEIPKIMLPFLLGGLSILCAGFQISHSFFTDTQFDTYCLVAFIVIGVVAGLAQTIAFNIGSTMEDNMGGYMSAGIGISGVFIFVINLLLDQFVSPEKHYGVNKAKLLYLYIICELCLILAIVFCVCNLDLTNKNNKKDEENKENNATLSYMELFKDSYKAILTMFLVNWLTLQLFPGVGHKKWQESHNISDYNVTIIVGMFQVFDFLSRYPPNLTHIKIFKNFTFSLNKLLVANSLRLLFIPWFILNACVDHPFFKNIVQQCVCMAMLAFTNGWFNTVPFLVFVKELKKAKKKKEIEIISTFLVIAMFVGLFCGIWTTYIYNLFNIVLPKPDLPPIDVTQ

PEEK [PK-4]
Uptake of [3H]CQ (% non-expressing oocyte control), cis-inhibition (non-expressing oocytes [1]; [test solute] = 0.5 mM): 100 ± 5.8 % non-expressing oocyte control
Uptake of [3H]CQ (% non-expressing oocyte control), cis-inhibition (non-expressing oocytes [1]; [test solute] = 1 mM): 99 ± 5.3 % non-expressing oocyte control
Uptake of [3H]CQ (% PfCRT3D7 control), cis-inhibition (PfCRT^3D7 [2]; [test solute] = 0.5 mM): 102 ± 4.4 % PfCRT3D7 control
Uptake of [3H]CQ (% PfCRT3D7 control), cis-inhibition (PfCRT^3D7 [2]; [test solute] = 1 mM): 99 ± 4.7 % PfCRT3D7 control
Uptake of [3H]CQ (% PfCRT3D7 control), cis-inhibition (PfCRT^3D7 [2]; [test solute] = 2 mM): 98 ± 3.7 % PfCRT3D7 control
PfCRT-mediated [3H]CQ transport, cis-inhibition (% PfCRTDd2 control) (PfCRT^Dd2 [3]; [test solute] = 0.5 mM): 57 ± 2.0 % PfCRTDd2 control
PfCRT-mediated [3H]CQ transport, cis-inhibition (% PfCRTDd2 control) (PfCRT^Dd2 [3]; [test solute] = 1 mM): 44 ± 2.1 % PfCRTDd2 control
PfCRT-mediated [3H]CQ transport, cis-inhibition (% PfCRTDd2 control) (PfCRT^Dd2 [3]; [test solute] = 2 mM): 37 ± 2.2 % PfCRTDd2 control
Uptake of [3H]CQ (% PfCRTEcu1110 control), cis-inhibition (PfCRT^Ecu1110 [4]; [test solute] = 0.5 mM): 51 ± 3.2 % PfCRTEcu1110 control
Uptake of [3H]CQ (% PfCRTEcu1110 control), cis-inhibition (PfCRT^Ecu1110 [4]; [test solute] = 1 mM): 47 ± 3.2 % PfCRTEcu1110 control
Uptake of [3H]CQ (% PfCRTEcu1110 control), cis-inhibition (PfCRT^Ecu1110 [4]; [test solute] = 2 mM): 33 ± 2.6 % PfCRTEcu1110 control
PfCRT-mediated [3H]CQ transport, cis-inhibition (% PfCRTEcu1110 control) (PfCRT^Ecu1110 [4]; [test solute] = 0.5 mM): 46 ± 1.6 % PfCRTEcu1110 control
PfCRT-mediated [3H]CQ transport, cis-inhibition (% PfCRTEcu1110 control) (PfCRT^Ecu1110 [4]; [test solute] = 1 mM): 42 ± 4.2 % PfCRTEcu1110 control
PfCRT-mediated [3H]CQ transport, cis-inhibition (% PfCRTEcu1110 control) (PfCRT^Ecu1110 [4]; [test solute] = 2 mM): 27 ± 1.9 % PfCRTEcu1110 control
[3H]CQ transport (% PfCRTEcu1110 control), cis-inhibition, PfCRTEcu1110 (PfCRT^Ecu1110 [4]; [test solute] = 0.5 mM): 14 ± 0.2 % PfCRTEcu1110 control
[3H]CQ transport (% PfCRTEcu1110 control), cis-inhibition, PfCRTEcu1110 (PfCRT^Ecu1110 [4]; [test solute] = 1 mM): 13 ± 0.4 % PfCRTEcu1110 control
[3H]CQ transport (% PfCRTEcu1110 control), cis-inhibition, PfCRTEcu1110 (PfCRT^Ecu1110 [4]; [test solute] = 2 mM): 9.0 ± 0.04 % PfCRTEcu1110 control
Uptake of [3H]CQ (% non-expressing oocyte control), trans-stimulation (non-expressing oocytes [5]; [test solute]i = 5 mM): 100 ± 1.8 % non-expressing oocyte control
Uptake of [3H]CQ (% non-expressing oocyte control), trans-stimulation (non-expressing oocytes [5]; [9]): 99 ± 1.5 % non-expressing oocyte control
Uptake of [3H]CQ (% PfCRT3D7 control), trans-stimulation (PfCRT^3D7 [6]; [test solute]i = 5 mM): 99 ± 2.1 % PfCRT3D7 control
Uptake of [3H]CQ (% PfCRT3D7 control), trans-stimulation (PfCRT^3D7 [6]; [9]): 100 ± 1.7 % PfCRT3D7 control
PfCRT-mediated [3H]CQ transport, trans-stimulation (% PfCRT3D7 control) (PfCRT^3D7 [6]; [10]): 97 ± 3.8 % PfCRT3D7 control
PfCRT-mediated [3H]CQ transport, trans-stimulation (% PfCRT3D7 control) (PfCRT^3D7 [6]; [11]): 98 ± 3.2 % PfCRT3D7 control
Uptake of [3H]CQ (% PfCRTDd2 control), trans-stimulation (PfCRT^Dd2 [7]; [test solute]i = 5 mM): 97 ± 2.1 % PfCRTDd2 control
Uptake of [3H]CQ (% PfCRTDd2 control), trans-stimulation (PfCRT^Dd2 [7]; [9]): 97 ± 3.2 % PfCRTDd2 control
PfCRT-mediated [3H]CQ transport, trans-stimulation (% PfCRTDd2 control) (PfCRT^Dd2 [7]; [10]): 95 ± 4.4 % PfCRTDd2 control
PfCRT-mediated [3H]CQ transport, trans-stimulation (% PfCRTDd2 control) (PfCRT^Dd2 [7]; [11]): 100 ± 4.3 % PfCRTDd2 control
[3H]CQ transport (% PfCRTDd2 control), trans-stimulation, PfCRTDd2 (PfCRT^Dd2 [7]; [12]): 95 ± 4.4 % PfCRTDd2 control
[3H]CQ transport (% PfCRTDd2 control), trans-stimulation, PfCRTDd2 (PfCRT^Dd2 [7]; [9]): 100 ± 4.3 % PfCRTDd2 control
Uptake of [3H]CQ (% PfCRTEcu1110 control), trans-stimulation (PfCRT^Ecu1110 [8]; [test solute]i = 5 mM): 99 ± 1.4 % PfCRTEcu1110 control
Uptake of [3H]CQ (% PfCRTEcu1110 control), trans-stimulation (PfCRT^Ecu1110 [8]; [9]): 97 ± 2.4 % PfCRTEcu1110 control
PfCRT-mediated [3H]CQ transport, trans-stimulation (% PfCRTEcu1110 control) (PfCRT^Ecu1110 [8]; [10]): 97 ± 2.7 % PfCRTEcu1110 control
PfCRT-mediated [3H]CQ transport, trans-stimulation (% PfCRTEcu1110 control) (PfCRT^Ecu1110 [8]; [11]): 95 ± 3.5 % PfCRTEcu1110 control
[3H]CQ transport (% PfCRTDd2 control), trans-stimulation, PfCRTEcu1110 (PfCRT^Ecu1110 [8]; [12]): 29 ± 1.1 % PfCRTEcu1110 control
[3H]CQ transport (% PfCRTDd2 control), trans-stimulation, PfCRTEcu1110 (PfCRT^Ecu1110 [8]; [9]): 29 ± 1.2 % PfCRTEcu1110 control
Uptake of [3H]CQ (% PfNT1 control), trans-stimulation (PfNT1; [test solute]i = 5 mM): 99 ± 2.1 % PfNT1 control
Uptake of [3H]CQ (% PfNT1 control), trans-stimulation (PfNT1; [9]): 100 ± 2.7 % PfNT1 control
